Like-named read-outs stand apart in the source and are kept apart here.

For one series, the system named is rabbit eyes. Briefly: Drug distribution in eye tissues after eye drop administration to rabbit eyes. It counts as in vivo. The settings on record: 3% eye drop administered to rabbit eyes (data not shown). An excerpt:
It has a property with low solubility at low pH. As the pH increases, it is ionized and its solubility increases.

In series [1] the test system is human keratoconjunctival epithelial cells. Particulars: cited from earlier work.
Series [2] is described as follows: Cell permeability of dissolved recoflavone. It counts as in vitro ADME. The settings on record: dissolved state, high degree of ionization.
A short description of a further series: Solubility in water. It counts as physicochemical. Particulars: low solubility at low pH, increases with pH.
The conditions of series [3]: cited from earlier work.

`COc1ccc(-c2cc(=O)c3c(OC)cc(OCC(=O)O)cc3o2)cc1OC` [recoflavone, 2-((2-(3,4-dimethoxyphenyl)-5-methoxy-4-oxo-4H-chromen-7-yl)oxy) acetic acid]: the “Drug distribution in each tissue of eye with time” value with rabbit eyes was “rarely distributed in the tissues located inside the eye and mainly distributed in the surrounding tissues outside of the eye”. In addition, the “Thickness of the mucin layer” value in series [1] (100 μM solution of the active ingredient) is “significantly increased”. In addition, the “Mucin proteins by Western blot analysis” value in series [1] (Western blot) is “MUC5AC only had a tendency to increase”. Besides, in series [1] (real-time PCR), the “Mucin expression MUC1, MUC4, MUC16 and MUC5AC by real-time PCR” value was “tendency to increase significantly for four hours and then decreased rapidly”. In series [2], the Cell permeability result is reported as “poor cell permeability”. In the series “Solubility in water”, the Solubility in water result was “practically insoluble in water”. Besides, the Hygroscopicity result was “stable without hygroscopicity” in series [3] (form of a hydrate) and “has hygroscopicity” in series [3] (form of an anhydride).

Source of the values: US20250082602A1, “OPHTHALMIC COMPOSITION CONTAINING RECOFLAVONE FOR THE TREATMENT OF DRY EYE DISEASE” (GL PHARMTECH CORP., priority 2021, published 2025).
